Experimental data taken from patent US20100010092A1, “USE OF MODAFINIL TO TREAT RESTLESS LEG SYNDROME” (Arless Ltd., priority 2006, published 2010).
Where a name gives a salt, the structure may show the parent alone.

Legend:
[1] = tested on: PLMD and RLS and Primary snoring; test: Case reports: patient with sleep study diagnosed PLMD, RLS and Primary snoring taking the drug orally; assay type: in vivo, human; details: for RLS and PLMD symptoms on chronic use: symptoms returned immediately after stopping
Experimental: An otherwise healthy non-obese person with sleep study diagnosed PLMD and RLS and Primary snoring without apnea, 61 kg, took Requip, ropinirole HCL from 0.25 to 0.75 mg orally per day for PLMS and RLS for a period of over 8-12 months. PLM were severe enough to occasionally awaken them from sleep. […] Multiple attempts at gaining relief were made over a period of 8-12 months. These attempts failed. […]

[2] = doses up to 400 mg per day, given as a single dose; cited from earlier work
[3] = tested on: restless leg syndrome and PLMS, and Primary snoring; test: Overnight polysomnographic sleep study, evening dosage; assay type: in vivo, human; details: oral 50 mg in the evening, versus baseline without drug
From the text: A non-obese subject with no outstanding medical history other than restless leg syndrome and PLMS of 6 years duration, and Primary snoring, 60 kg, was entered into an overnight sleep study in a specialist hospital sleep disorder center. […] Snoring as represented by the Snore Index was reduced 70%.

[4] = cited from earlier work; for share of trough concentration (Cminss) of circulating modafinil: after once daily dosing of racemic modafinil
[5] = tested on: RLS; details: moderate to severe RLS; cited from earlier work
[6] = 50 mg by mouth 1-3 hours prior to bedtime
[7] = 50 mg by mouth between 8 am and noon
[8] = 50 mg or 25 mg by mouth in the morning

NC(=O)C[S+]([O-])C(c1ccccc1)c1ccccc1 (racemic) [modafinil, 2-[(diphenylmethyl)sulfiny]acetamide]
symptoms ([1]; 25 mg as needed, evening dosage): either completely relieved or greatly diminished | removal of symptoms at lower dosage ([1]; 25 mg by mouth in the morning): failed to entirely remove symptoms | limb movements and the urge to move the limb and associated sensations while awake [1, 6]: greatly reduced | time until limb movements and urge were greatly reduced [1, 6]: approximately 90 minutes | leg jerks during sleep observed by partner [1, 7]: no leg jerks during sleep were observed | limb movements and snoring while asleep noticed by partner [1, 7]: absence of limb movements and snoring | restfulness noted by patient [1, 7]: increased restfulness | urge to move legs in the evenings [1, 7]: No urge to move legs in the evenings occurred | limb movements and the urge to move the limb and associated sensations while awake [1, 8]: greatly reduced | snoring noted by sleep partner [1, 8]: marked decrease in snoring | leg jerks during sleep observed by partner ([1]; 100 mg by mouth in the morning): no leg jerks during sleep were observed | limb movements and snoring while asleep noticed by partner ([1]; 100 mg by mouth in the morning): absence of limb movements and snoring | restfulness noted by patient ([1]; 100 mg by mouth in the morning): increased restfulness | urge to move legs in the evenings ([1]; 100 mg by mouth in the morning): No urge to move legs in the evenings occurred | RLS and PLMD symptoms on chronic use ([1]; evening dosage, every day for periods of 5 to 7 days): periods free from RLS and PLMD symptoms | RLS and PLMD symptoms on chronic use ([1]; morning dosage 50 or 25 mg, every day for periods of up to 11 days): periods free from RLS and PLMD symptoms | tolerability [2]: well tolerated | PLMs during sleep [3]: not detected | reduction of snoring as represented by the Snore Index [3]: 70%

NC(=O)C[S+]([O-])C(c1ccccc1)c1ccccc1 (single isomer, unassigned) [d-isomer]
share of trough concentration (Cminss) of circulating modafinil [4]: 10%

NC(=O)C[S@@+]([O-])C(c1ccccc1)c1ccccc1 [I-isomer, r-2-((diphenylmethyl)sulfinyl)-acetamide]
share of trough concentration (Cminss) of circulating modafinil [4]: 90% | total exposure at steady state relative to that for the d-isomer ([4]; taken orally, steady state): approximately three

CCCN(CCC)CCc1cccc2c1CC(=O)N2 [Requip, ropinirole HCL]
PLMS according to the partner ([1]; ropinirole HCL 0.25 to 0.75 mg orally per day, over 8-12 months): PLMS continued | relief of RLS/PLMS symptoms ([1]; ropinirole HCL 0.25 to 0.75 mg orally per day, over 8-12 months, person): did not relieve symptoms | additional complications reported by patients [5]: constipation and daytime sleepiness
